From PubChem BioAssay AID1963981 (Molecular Pharmacology Branch, DTP, NCI, 2024)
pIC50: −log10 of the molar value.

Tested on: 354836-022-R-J1-PDC multicell spheroid viability
Test: Anticancer human tumor 354836-022-R-J1-PDC patient-derived head and neck squamous cell carcinoma cell line growth inhibition [PI3K]
Settings: for pIC50: curve of first compound; for viability, T/C: stronger effect = lower value; active = viability on the fitted dose curve at most 10% of control; inactive = the rest
Summary of the method: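 Complex 3D spheroids (cancer cells + endothelial HUVEC + mesenchymal stem cells); drug pairs of targeted agent x inavolisib/alpelisib/duvelisib/copanlisib; half-log series from ~Cmax, max 10 microM if Cmax unknown; endpoint viability.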

[1] = second compound 0.00316 µM, first compound 0.0316 µM
[2] = second compound 0.00316 µM, first compound 0.1 µM
[3] = second compound 0.00316 µM, first compound 0.316 µM
[4] = second compound 0.00316 µM, first compound 1 µM
[5] = second compound 0.00316 µM, first compound 3.16 µM
[6] = second compound 0.00316 µM, first compound 10 µM
[7] = second compound 0.01 µM, first compound 0.0316 µM
[8] = second compound 0.01 µM, first compound 0.1 µM
[9] = second compound 0.01 µM, first compound 0.316 µM
[10] = second compound 0.01 µM, first compound 1 µM
[11] = second compound 0.01 µM, first compound 3.16 µM
[12] = second compound 0.01 µM, first compound 10 µM
[13] = second compound 0.0316 µM, first compound 0.0316 µM
[14] = second compound 0.0316 µM, first compound 0.1 µM
[15] = second compound 0.0316 µM, first compound 0.316 µM
[16] = second compound 0.0316 µM, first compound 1 µM
[17] = second compound 0.0316 µM, first compound 3.16 µM
[18] = second compound 0.0316 µM, first compound 10 µM
[19] = second compound 0.1 µM, first compound 0.0316 µM
[20] = second compound 0.1 µM, first compound 0.1 µM
[21] = second compound 0.1 µM, first compound 0.316 µM
[22] = second compound 0.1 µM, first compound 1 µM
[23] = second compound 0.1 µM, first compound 3.16 µM
[24] = second compound 0.1 µM, first compound 10 µM
[25] = second compound 0.316 µM, first compound 0.0316 µM
[26] = second compound 0.316 µM, first compound 0.1 µM
[27] = second compound 0.316 µM, first compound 0.316 µM
[28] = second compound 0.316 µM, first compound 1 µM
[29] = second compound 0.316 µM, first compound 3.16 µM
[30] = second compound 0.316 µM, first compound 10 µM
[31] = second compound 1 µM, first compound 0.0316 µM
[32] = second compound 1 µM, first compound 0.1 µM
[33] = second compound 1 µM, first compound 0.316 µM
[34] = second compound 1 µM, first compound 1 µM
[35] = second compound 1 µM, first compound 3.16 µM
[36] = second compound 1 µM, first compound 10 µM
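Also: spheroids exposed to agents for seven days before the viability read.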

C#Cc1c(F)ccc2cc(O)cc(-c3ncc4c(N5CC6CCC(C5)N6)nc(OCC56CCCN5CC(F)C6)nc4c3F)c12 (centres undefined) + COc1c(OCCCN2CCOCC2)ccc2c3n(c(=NC(=O)c4cnc(N)nc4)nc12)CCN3
< 5.00: pIC50 (second compound 0.00316 µM) | pIC50 (second compound 0.01 µM) | pIC50 (second compound 0.0316 µM)
active: viability, T/C [29] 11.4% | viability, T/C [30] 3.3% | viability, T/C [31] 2.48% | viability, T/C [32] 2.22% | viability, T/C [33] 1.66% | viability, T/C [34] 1.78% | viability, T/C [35] 1.73% | viability, T/C [36] 0.66%
> 7.50: pIC50 (second compound 0.316 µM) | pIC50 (second compound 1 µM)
6.29: pIC50 (second compound 0.1 µM)
inactive: viability, T/C [1] 113% | viability, T/C [2] 102% | viability, T/C [3] 107% | viability, T/C [4] 108% | viability, T/C [5] 111% | viability, T/C [6] 92.8% | viability, T/C [7] 98% | viability, T/C [8] 99% | viability, T/C [9] 96.3% | viability, T/C [10] 116% | viability, T/C [11] 92% | viability, T/C [12] 101% | viability, T/C [13] 79.4% | viability, T/C [14] 84.2% | viability, T/C [15] 96.4% | viability, T/C [16] 89.7% | viability, T/C [17] 74.1% | viability, T/C [18] 77.1% | viability, T/C [19] 56.1% | viability, T/C [20] 67.8% | viability, T/C [21] 52.9% | viability, T/C [22] 47.1% | viability, T/C [23] 45.6% | viability, T/C [24] 45.4% | viability, T/C [25] 14.6% | viability, T/C [26] 14% | viability, T/C [27] 12.9% | viability, T/C [28] 14.6%

CC1(C)CCC(Nc2ncc(C(F)(F)F)c(-c3c[nH]c4c(P(C)(C)=O)c(C#N)ccc34)n2)CN1 (centres undefined) + COc1c(OCCCN2CCOCC2)ccc2c3n(c(=NC(=O)c4cnc(N)nc4)nc12)CCN3
active: viability, T/C [5] 15.3% | viability, T/C [6] 3.31% | viability, T/C [11] 15.3% | viability, T/C [12] 1.45% | viability, T/C [17] 13.4% | viability, T/C [18] 1.98% | viability, T/C [20] 8.41% | viability, T/C [21] 9.5% | viability, T/C [22] 9.61% | viability, T/C [23] 8.75% | viability, T/C [24] 0.91% | viability, T/C [25] 3.76% | viability, T/C [26] 3.49% | viability, T/C [27] 5.12% | viability, T/C [28] 4.26% | viability, T/C [29] 4.19% | viability, T/C [30] 0.4% | viability, T/C [31] 1.25% | viability, T/C [32] 1.35% | viability, T/C [33] 1.58% | viability, T/C [34] 1.61% | viability, T/C [35] 1.3% | viability, T/C [36] 0.43%
> 7.50: pIC50 (second compound 0.00316 µM) | pIC50 (second compound 0.01 µM) | pIC50 (second compound 0.0316 µM) | pIC50 (second compound 0.1 µM) | pIC50 (second compound 0.316 µM) | pIC50 (second compound 1 µM)
inactive: viability, T/C [1] 12.1% | viability, T/C [2] 11.7% | viability, T/C [3] 11.3% | viability, T/C [4] 12.8% | viability, T/C [7] 13.1% | viability, T/C [8] 12.1% | viability, T/C [9] 13% | viability, T/C [10] 12.4% | viability, T/C [13] 9.55% | viability, T/C [14] 11.7% | viability, T/C [15] 11.4% | viability, T/C [16] 14.8% | viability, T/C [19] 9.95%
